Data published in ChEMBL document CHEMBL4373723 (J Med Chem, 2019).
Bridge positions count the residues as written; N and C are the ends. Peptide text beside a SMILES is read from it. I, II: the chains in the order shown.

What was measured:
Frizzled-7 [1] = biological target: T1, Frizzled-7 (Homo sapiens, UniProt O75084); format: cell-based; details: cho
Frizzled-7 [2] = biological target: T1, Frizzled-7; assay: biochemical; format: cell-based, CHO; details: read-out: Kd
Frizzled-7 [3] = biological target: T1, Frizzled-7; assay: Inhibition of Frizzled-7 in HEK293 cells expressing Wnt assessed as reduction in Wnt signaling by firefly luciferase reporter gene assay; format: cell-based
Frizzled-7 [4] = biological target: T1, Frizzled-7; details: CHO
Description: Binding affinity to recombinant human Frizzled-7 (Gln33 to Leu185 residues)/human IgG1 chimeric protein expressed in CHO cells assessed as association rate constant by SPR assay

Frizzled-1 = Frizzled-1 (Homo sapiens, UniProt Q9UP38); assay: Binding affinity to recombinant human Frizzled-1 (Gln73 to His253 residues)/human IgG1 chimeric protein expressed in mouse NS0 cells by SPR assay
Frizzled-1, sequence (Q9UP38 whole entry): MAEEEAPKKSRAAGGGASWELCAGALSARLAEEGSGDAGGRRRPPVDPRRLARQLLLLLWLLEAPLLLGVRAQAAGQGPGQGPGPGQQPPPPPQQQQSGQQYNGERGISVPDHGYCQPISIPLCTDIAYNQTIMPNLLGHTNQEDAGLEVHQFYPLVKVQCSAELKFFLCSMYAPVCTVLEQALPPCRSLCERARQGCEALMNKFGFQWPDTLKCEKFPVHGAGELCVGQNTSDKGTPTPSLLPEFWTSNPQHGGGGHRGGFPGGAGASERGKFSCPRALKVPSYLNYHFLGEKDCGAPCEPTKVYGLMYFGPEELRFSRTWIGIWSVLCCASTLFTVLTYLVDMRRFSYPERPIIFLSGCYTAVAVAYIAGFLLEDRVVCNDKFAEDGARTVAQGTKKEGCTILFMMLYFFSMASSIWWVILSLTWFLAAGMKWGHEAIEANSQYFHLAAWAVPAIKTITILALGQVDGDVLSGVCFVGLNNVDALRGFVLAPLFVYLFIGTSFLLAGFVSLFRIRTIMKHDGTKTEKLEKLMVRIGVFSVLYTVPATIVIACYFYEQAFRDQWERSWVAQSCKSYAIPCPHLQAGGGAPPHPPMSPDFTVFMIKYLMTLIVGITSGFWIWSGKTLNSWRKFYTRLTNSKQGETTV

[5] = Binding affinity to recombinant human/mouse Frizzled-2 (Gln29 to Leu168 residues)/human IgG1 chimeric protein expressed in mouse NS0 cells by SPR assay
Frizzled-5 = Frizzled-5 (Homo sapiens, UniProt Q13467); assay: Binding affinity to recombinant human Frizzled-5 (Ala27 to Pro167 residues)/human IgG1 chimeric protein expressed in mouse NS0 cells by SPR assay
Frizzled-5, sequence (Q13467 whole entry): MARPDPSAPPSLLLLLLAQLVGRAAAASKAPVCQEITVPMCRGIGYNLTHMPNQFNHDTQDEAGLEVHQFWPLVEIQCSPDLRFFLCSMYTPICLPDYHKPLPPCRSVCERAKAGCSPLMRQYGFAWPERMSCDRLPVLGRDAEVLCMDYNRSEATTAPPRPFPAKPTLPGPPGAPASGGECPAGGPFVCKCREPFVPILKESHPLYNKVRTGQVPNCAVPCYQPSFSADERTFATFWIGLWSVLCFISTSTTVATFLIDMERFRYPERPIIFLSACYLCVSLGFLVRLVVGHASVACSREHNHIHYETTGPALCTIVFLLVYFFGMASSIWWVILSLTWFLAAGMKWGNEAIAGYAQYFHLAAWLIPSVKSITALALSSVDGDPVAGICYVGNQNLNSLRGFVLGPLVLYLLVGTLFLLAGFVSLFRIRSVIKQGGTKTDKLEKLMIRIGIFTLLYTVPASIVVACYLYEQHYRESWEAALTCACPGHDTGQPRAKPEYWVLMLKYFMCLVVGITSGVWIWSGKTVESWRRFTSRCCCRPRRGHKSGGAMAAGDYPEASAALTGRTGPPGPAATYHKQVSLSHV

Frizzled-8 = Frizzled-8 (Homo sapiens, UniProt Q9H461); assay: Binding affinity to recombinant human Frizzled-8 (Ala25 to Pro172 residues)/human IgG1 chimeric protein expressed in CHO cells […] by SPR assay
Frizzled-8, sequence (Q9H461 whole entry): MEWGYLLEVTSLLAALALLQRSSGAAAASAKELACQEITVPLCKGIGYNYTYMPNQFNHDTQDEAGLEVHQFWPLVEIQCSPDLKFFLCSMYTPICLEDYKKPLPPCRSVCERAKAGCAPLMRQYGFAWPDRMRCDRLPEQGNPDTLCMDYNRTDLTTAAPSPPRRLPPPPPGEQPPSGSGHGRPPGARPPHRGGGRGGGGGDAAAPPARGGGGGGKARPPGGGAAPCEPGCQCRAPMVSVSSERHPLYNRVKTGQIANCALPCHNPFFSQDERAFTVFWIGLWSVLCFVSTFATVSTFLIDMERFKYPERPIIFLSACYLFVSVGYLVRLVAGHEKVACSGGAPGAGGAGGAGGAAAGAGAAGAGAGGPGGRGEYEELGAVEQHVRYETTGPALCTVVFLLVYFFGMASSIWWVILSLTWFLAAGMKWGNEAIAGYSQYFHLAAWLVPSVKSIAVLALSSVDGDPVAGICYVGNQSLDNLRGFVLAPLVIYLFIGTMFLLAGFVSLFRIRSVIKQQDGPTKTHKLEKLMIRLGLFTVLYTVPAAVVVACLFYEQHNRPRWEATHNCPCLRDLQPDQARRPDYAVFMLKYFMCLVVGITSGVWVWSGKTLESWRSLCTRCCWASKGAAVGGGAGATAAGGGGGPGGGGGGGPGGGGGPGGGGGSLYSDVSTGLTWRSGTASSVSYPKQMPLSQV

Frizzled-4 = biological target: T2, Frizzled-4 (Homo sapiens, UniProt Q9ULV1); assay: Binding affinity to recombinant human Frizzled-4 (Phe37 to Glu180 residues)/human IgG1 chimeric protein expressed in mouse NS0 cells by SPR assay
T2 sequence (Q9ULV1 whole entry): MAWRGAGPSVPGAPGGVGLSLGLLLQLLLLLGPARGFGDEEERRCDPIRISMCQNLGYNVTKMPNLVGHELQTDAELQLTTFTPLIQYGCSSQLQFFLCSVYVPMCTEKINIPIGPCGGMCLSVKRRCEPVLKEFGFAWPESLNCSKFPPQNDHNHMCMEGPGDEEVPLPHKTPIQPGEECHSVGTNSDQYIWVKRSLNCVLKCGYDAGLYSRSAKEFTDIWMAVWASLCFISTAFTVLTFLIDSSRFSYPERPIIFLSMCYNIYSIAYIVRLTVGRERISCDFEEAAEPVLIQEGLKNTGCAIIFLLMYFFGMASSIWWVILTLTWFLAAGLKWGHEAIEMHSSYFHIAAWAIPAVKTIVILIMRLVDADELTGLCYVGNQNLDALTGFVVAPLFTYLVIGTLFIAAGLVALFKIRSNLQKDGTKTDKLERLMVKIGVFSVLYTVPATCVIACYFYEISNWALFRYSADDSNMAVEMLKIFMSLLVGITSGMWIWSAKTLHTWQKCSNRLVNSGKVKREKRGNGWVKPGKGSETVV

Frizzled-9 = biological target: T3, Frizzled-9 (Homo sapiens, UniProt O00144); assay: Binding affinity to Frizzled-9 CRD (unknown origin)
T3 sequence (O00144 whole entry): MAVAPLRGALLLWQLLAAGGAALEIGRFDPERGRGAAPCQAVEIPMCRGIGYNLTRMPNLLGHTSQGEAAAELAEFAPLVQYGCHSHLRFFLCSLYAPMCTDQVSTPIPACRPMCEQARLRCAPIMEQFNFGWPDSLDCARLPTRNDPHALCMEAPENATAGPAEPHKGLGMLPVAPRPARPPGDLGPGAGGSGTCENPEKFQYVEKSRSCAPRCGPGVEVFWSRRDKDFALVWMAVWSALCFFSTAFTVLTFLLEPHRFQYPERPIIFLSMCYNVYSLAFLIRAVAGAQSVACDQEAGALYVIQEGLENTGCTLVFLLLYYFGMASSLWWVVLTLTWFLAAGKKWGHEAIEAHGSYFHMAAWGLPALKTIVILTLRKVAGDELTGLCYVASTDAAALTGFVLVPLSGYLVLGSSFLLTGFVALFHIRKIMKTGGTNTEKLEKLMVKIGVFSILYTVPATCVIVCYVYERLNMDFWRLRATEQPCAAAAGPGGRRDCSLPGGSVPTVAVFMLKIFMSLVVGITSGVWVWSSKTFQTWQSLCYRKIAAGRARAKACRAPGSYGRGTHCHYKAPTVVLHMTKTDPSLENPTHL

Frizzled-10 = biological target: T4, Frizzled-10 (Homo sapiens, UniProt Q9ULW2); assay: Binding affinity to Frizzled-10 CRD (unknown origin)
T4 sequence (Q9ULW2 whole entry): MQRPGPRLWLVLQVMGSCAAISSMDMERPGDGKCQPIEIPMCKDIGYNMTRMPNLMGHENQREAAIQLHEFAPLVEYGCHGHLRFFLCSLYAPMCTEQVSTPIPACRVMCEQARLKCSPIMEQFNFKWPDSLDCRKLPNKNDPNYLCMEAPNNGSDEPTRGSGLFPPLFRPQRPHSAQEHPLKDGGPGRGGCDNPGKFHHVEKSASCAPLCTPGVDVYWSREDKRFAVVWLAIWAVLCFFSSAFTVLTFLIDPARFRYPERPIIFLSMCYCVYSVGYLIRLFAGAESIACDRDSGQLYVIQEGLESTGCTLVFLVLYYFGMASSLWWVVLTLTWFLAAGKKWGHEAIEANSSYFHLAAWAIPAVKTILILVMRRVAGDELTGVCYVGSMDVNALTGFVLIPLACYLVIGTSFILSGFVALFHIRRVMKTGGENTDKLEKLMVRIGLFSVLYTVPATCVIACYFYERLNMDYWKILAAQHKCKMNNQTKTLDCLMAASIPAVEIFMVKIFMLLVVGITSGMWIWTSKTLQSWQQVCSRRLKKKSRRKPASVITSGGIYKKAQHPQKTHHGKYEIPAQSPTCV

Frizzled-7 [6] = biological target: T1, Frizzled-7; assay: Binding affinity to recombinant human Frizzled-7 (Gln33 to Leu185 residues)/human IgG1 chimeric protein expressed in CHO cells assessed as reduction in interaction of TcdB with FZD7 incubated for 1 hr by competition ELISA; format: cell-based
[7] = Binding affinity to recombinant human/mouse Frizzled-2 (Gln29 to Leu168 residues)/human IgG1 chimeric protein expressed in mouse NS0 cells assessed as reduction in interaction of TcdB with FZD7 incubated for 1 hr by competition ELISA; format: cell-based
[8] = Stability in presence of TCEP assessed as disulfide reduction at 20 uM measured over 40 mins at 37 degC by LC-MS analysis; format: physicochemical
[9] = mouse, serum, 24 h, 200 µM
[10] = 40 min, 20 µM
[11] = 40 min, 20 µM; remark: listed apart in the source

Row | SMILES | Kd (Frizzled-7 [1]) [×10⁻³ /s] | Kd (Frizzled-7 [2]) [nM] | IC50 (Frizzled-7 [3]) [nM] | Ka (Frizzled-7 [4]) [×10⁵ /M/s] | Kd (Frizzled-1) [nM] | Kd [5] [nM] | Kd (Frizzled-5) | Kd (Frizzled-8) | Kd (Frizzled-4) | Kd (Frizzled-9) | Kd (Frizzled-10) | inhibition (Frizzled-7 [6]) | inhibition [7] | Stability [8] | Stability [9] | Stability [10] | Stability [11]
1 | CC[C@H](C)[C@H](NC(=O)[C@H](Cc1cnc[nH]1)NC(=O)[C@H](CSSC[C@H](NC(=O)[C@H](Cc1c[nH]c2ccccc12)NC(=O)[C@H](CC(C)C)NC(=O)[C@H](CCCCN)NC(=O)[C@H](CC(C)C)NC(=O)[C@H](CC(=O)O)NC(=O)[C@H](CC(=O)O)NC(=O)[C@@H](NC(C)=O)[C@H](C)O)C(=O)N[C@@H](Cc1cnc[nH]1)C(=O)N[C@H](C(=O)N[C@@H](CCSC)C(=O)N[C@@H](Cc1ccc(O)cc1)C(N)=O)[C@@H](C)CC)NC(=O)[C@H](Cc1c[nH]c2ccccc12)NC(=O)[C@H](CC(C)C)NC(=O)[C@H](CCCCN)NC(=O)[C@H](CC(C)C)NC(=O)[C@H](CC(=O)O)NC(=O)[C@H](CC(=O)O)NC(=O)[C@@H](NC(C)=O)[C@H](C)O)C(=O)N[C@@H](CCSC)C(=O)N[C@@H](Cc1ccc(O)cc1)C(N)=O | 0.46 | 0.045 | 4.8 | 103 | – | – | – | – | – | – | – | – | – | – | – | – | –
2 | CSCC[C@H](NC(=O)[C@@H](NC(=O)[C@H](Cc1cnc[nH]1)NC(=O)[C@H](CSSC[C@H](NC(=O)[C@H](Cc1c[nH]c2ccccc12)NC(=O)[C@H](Cc1ccccc1)NC(=O)[C@H](CCC(=O)O)NC(=O)[C@H](CC(C)C)NC(=O)[C@H](CC(=O)O)NC(=O)[C@H](CC(=O)O)NC(=O)[C@H](CO)NC(=O)[C@@H]1CCCN1C(=O)[C@H](CC(C)C)NC(C)=O)C(=O)N[C@@H](Cc1cnc[nH]1)C(=O)N[C@H](C(=O)N[C@@H](CCSC)C(=O)N[C@@H](Cc1ccc(O)cc1)C(N)=O)C(C)C)NC(=O)[C@H](Cc1c[nH]c2ccccc12)NC(=O)[C@H](Cc1ccccc1)NC(=O)[C@H](CCC(=O)O)NC(=O)[C@H](CC(C)C)NC(=O)[C@H](CC(=O)O)NC(=O)[C@H](CC(=O)O)NC(=O)[C@H](CO)NC(=O)[C@@H]1CCCN1C(=O)[C@H](CC(C)C)NC(C)=O)C(C)C)C(=O)N[C@@H](Cc1ccc(O)cc1)C(N)=O (I: Ac-LPSDDLEFWCHVMY-NH2 / II: Ac-LPSDDLEFWCHVMY-NH2; disulfide I:10-II:10) | 5.6 | 1.18 | 32 | 47.5 | 2.42 | 1.46 | Not Active | Not Active | Not Active | Not Active | Not Active | Dose-dependent effect | Dose-dependent effect | – | – | – | –
3 | CSCC[C@H](NC(=O)[C@@H](NC(=O)[C@H](Cc1cnc[nH]1)NC(=O)[C@H](CSSC[C@H](NC(=O)[C@H](Cc1c[nH]c2ccccc12)NC(=O)[C@H](Cc1ccccc1)NC(=O)[C@H](CCC(=O)O)NC(=O)[C@H](CC(C)C)NC(=O)[C@H](CC(=O)O)NC(=O)[C@H](CC(=O)O)NC(=O)[C@H](CO)NC(C)=O)C(=O)N[C@@H](Cc1cnc[nH]1)C(=O)N[C@H](C(=O)N[C@@H](CCSC)C(=O)N[C@@H](Cc1ccc(O)cc1)C(N)=O)C(C)C)NC(=O)[C@H](Cc1c[nH]c2ccccc12)NC(=O)[C@H](Cc1ccccc1)NC(=O)[C@H](CCC(=O)O)NC(=O)[C@H](CC(C)C)NC(=O)[C@H](CC(=O)O)NC(=O)[C@H](CC(=O)O)NC(=O)[C@H](CO)NC(C)=O)C(C)C)C(=O)N[C@@H](Cc1ccc(O)cc1)C(N)=O (I: Ac-SDDLEFWCHVMY-NH2 / II: Ac-SDDLEFWCHVMY-NH2; disulfide I:8-II:8) | 2.3 | 0.37 | – | 61.9 | 1.12 | 0.99 | Not Active | Not Active | Not Active | Not Active | Not Active | Dose-dependent effect | Dose-dependent effect | Unstable | Stable | Unstable | Unstable
4 | CC[C@H](C)[C@H](NC(=O)[C@H](Cc1cnc[nH]1)NC(=O)[C@H](CSSC[C@H](NC(=O)[C@H](Cc1c[nH]c2ccccc12)NC(=O)[C@H](CC(C)C)NC(=O)[C@H](CCC(=O)O)NC(=O)[C@H](CC(C)C)NC(=O)[C@H](CC(=O)O)NC(=O)[C@H](CC(=O)O)NC(=O)[C@H](CO)NC(C)=O)C(=O)N[C@@H](Cc1cnc[nH]1)C(=O)N[C@H](C(=O)N[C@@H](CCSC)C(=O)N[C@@H](Cc1ccc(O)cc1)C(N)=O)[C@@H](C)CC)NC(=O)[C@H](Cc1c[nH]c2ccccc12)NC(=O)[C@H](CC(C)C)NC(=O)[C@H](CCC(=O)O)NC(=O)[C@H](CC(C)C)NC(=O)[C@H](CC(=O)O)NC(=O)[C@H](CC(=O)O)NC(=O)[C@H](CO)NC(C)=O)C(=O)N[C@@H](CCSC)C(=O)N[C@@H](Cc1ccc(O)cc1)C(N)=O (I: Ac-SDDLELWCHIMY-NH2 / II: Ac-SDDLELWCHIMY-NH2; disulfide I:8-II:8) | 0.57 | 0.044 | 7.3 | 128 | – | – | – | – | – | – | – | – | – | – | – | – | –
